Results published in US6133311A, “Method for preventing or treating elevated blood lipid level-related diseases by administering natural phenolic compounds” (priority 1998, dated 2000).

Biological target: T1, ACAT (Rattus norvegicus, UniProt Q7TQM4)
T1 construct: microsomes were separated from liver tissues to be used as an enzyme source; from tissue; host or cells: rat liver microsomes
T1 sequence (Q7TQM4 1-524): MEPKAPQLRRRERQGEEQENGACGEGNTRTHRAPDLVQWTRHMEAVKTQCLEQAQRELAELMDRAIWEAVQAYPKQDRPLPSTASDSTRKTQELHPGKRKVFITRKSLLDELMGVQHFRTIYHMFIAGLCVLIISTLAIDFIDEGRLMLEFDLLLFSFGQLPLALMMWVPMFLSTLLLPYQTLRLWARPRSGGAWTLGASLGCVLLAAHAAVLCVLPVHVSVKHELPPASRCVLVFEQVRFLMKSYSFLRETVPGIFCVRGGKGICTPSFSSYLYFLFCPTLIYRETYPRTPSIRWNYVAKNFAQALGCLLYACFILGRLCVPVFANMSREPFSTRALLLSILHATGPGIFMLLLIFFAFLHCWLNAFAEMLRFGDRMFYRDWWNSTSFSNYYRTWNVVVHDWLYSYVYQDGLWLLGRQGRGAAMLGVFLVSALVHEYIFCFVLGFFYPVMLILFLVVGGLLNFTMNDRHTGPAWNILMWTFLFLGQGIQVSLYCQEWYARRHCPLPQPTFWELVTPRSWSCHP
Experiment: ACAT inhibition in liver microsomes of fed rats
Format: biochemical
Conditions: liver microsomes of rats fed 0.1% compound, vs Control
Experimental: Activity of Tannin or gallic acid in ACAT Inhibition
To determine the effect of feeding tannin or gallic acid to rats on the activity of ACAT, microsomes were separated from liver tissues to be used as an enzyme source.
1 g each of the livers taken from each group of rats of Example 2 was homogenized in 5 ml of homogenization medium (0.1 M KH2 PO4, pH 7.4, 0.1 mM EDTA and 10 mM β-mercaptoethanol). The homogenate was centrifuged at 3,000xg for 15 min. at 4° C. and the supernatant thus obtained was centrifuged at 15,000xg for 15 min. at 4° C. to obtain a supernatant. The supernatant was put into an ultracentrifuge tube (Beckman) and centrifuged at 100,000 xg for 1 hour at 4° C. to obtain microsomal pellets, which were then suspended in 3 ml of the homogenization medium and centrifuged at 100,000 xg for 1 hour at 4° C. […] The protein concentration of the resulting suspension was determined by Lowry's method and then adjusted to 4 to 8 mg/ml. […]
200 μl of the resulting supernatant was put in a scintillation bottle and 4 ml of scintillation fluid (Lumac) was added thereto. The mixture was assayed for radioactivity with 1450 Microbeta liquid scintillation counter (Wallacoy, Finland). ACAT activity was calculated as picomoles of cholesteryl oleate synthesized per min. per mg protein (pmoles/min/mg protein) The result is shown in Table III.

## O=C(O)c1cc(O)c(O)c(O)c1 [Gallic acid, gallic acid]
  % Inhibition on ACAT activity: 42.1%

## tannin
  % Inhibition on ACAT activity: 41.7%
